A value given as a limit tells only on which side of the number the result lay.

This passage reports melting point results from patent US6699862B1, “Indolyl-2-phenyl bisamidines useful as antiproliferative agents” (Pfizer Inc., priority 1999, dated 2004).

For the molecule `Cl.Cl.O=C(O)Cc1c(-c2ccc(C3=NCCN3)cc2)[nH]c2cc(C3=NCCN3)ccc12`, the melting point was > 300 °C. The value for `CCCOC(=O)Cc1c(-c2ccc(C(=N)N)cc2)[nH]c2cc(C(=N)N)ccc12.Cl.Cl` was > 270 °C; that for `CCOC(=O)Cc1c(-c2ccc(C3=NCCN3)cc2)[nH]c2cc(C3=NCCN3)ccc12.Cl.Cl` was > 300 °C; that for `Cl.Cl.Fc1cc2cc(-c3ccc(C4=NCCN4)cc3)[nH]c2cc1C1=NCCN1` was > 250 °C. With `Cl.Cl.N=C(N)c1ccc(-c2[nH]c3cc(C(=N)N)ccc3c2CC(=O)OCCOCCO)cc1` the figure was > 250 °C; with `COc1cc(C(=N)N)ccc1-c1cc2ccc(C(=N)N)cc2[nH]1.Cl.Cl`, > 250 °C.

For the molecule `COC(=O)C(C)NCCc1c(-c2ccc(C(=N)N)cc2)[nH]c2cc(C(=N)N)ccc12.Cl.Cl` (centres unmarked), the melting point is > 250 °C. Regarding `COCCOC(=O)Cc1c(-c2ccc(C(=N)N)cc2)[nH]c2cc(C(=N)N)ccc12.Cl.Cl`, the melting point is > 250 °C. The value for `Cl.Cl.N=C(N)c1ccc(-c2cc3ccc(C(=N)N)cc3[nH]2)c(O)c1` was > 300 °C. With `COC(=O)c1cc(Cl)ccc1Cc1c(-c2ccc(C(=N)N)cc2)[nH]c2cc(C(=N)N)ccc12.Cl.Cl` the figure was > 250 °C.

For the molecule `COCCOCCOC(=O)Cc1c(-c2ccc(C(=N)N)cc2)[nH]c2cc(C(=N)N)ccc12.Cl.Cl`, the melting point is > 250 °C. Consider `CCSCCOC(=O)Cc1c(-c2ccc(C(=N)N)cc2)[nH]c2cc(C(=N)N)ccc12.Cl.Cl`, for which the melting point is > 250 °C. With `COC(=O)C=Cc1ccc(Cc2c(-c3ccc(C(=N)N)cc3)[nH]c3cc(C(=N)N)ccc23)cc1.Cl.Cl`, the melting point was > 250 °C. With `Cl.Cl.N#CCCOC(=O)Cc1c(-c2ccc(C(=N)N)cc2)[nH]c2cc(C(=N)N)ccc12` the figure was > 250 °C; with `Cl.Cl.N=C(N)c1ccc(-c2[nH]c3cc(C(=N)N)ccc3c2CC(=O)OCCc2cccs2)cc1`, > 250 °C.

Take `COC(=O)C(CO)NCCc1c(-c2ccc(C(=N)N)cc2)[nH]c2cc(C(=N)N)ccc12.Cl.Cl` (centres unmarked): the melting point was > 250 °C. With `Cl.Cl.N=C(N)c1ccc(-c2[nH]c3cc(C(=N)N)ccc3c2CC(=O)OCCO)cc1` the figure was > 250 °C. With `COC(=O)c1ccc(Cc2c(-c3ccc(C(=N)N)cc3)[nH]c3cc(C(=N)N)ccc23)cc1.Cl.Cl` the figure was > 250 °C; with `CCOC(=O)CC(C)OC(=O)Cc1c(-c2ccc(C(=N)N)cc2)[nH]c2cc(C(=N)N)ccc12.Cl.Cl` (centres unmarked), > 250 °C; with `Cl.Cl.N=C(N)c1ccc(-c2[nH]c3cc(C(=N)N)ccc3c2NC(=O)CCC(=O)O)cc1`, > 250 °C. With `Cl.Cl.N=C(N)c1ccc(-c2[nH]c3cc(C(=N)N)ccc3c2CC(O)CO)cc1` (centres unmarked) the figure was > 250 °C; with `Cl.Cl.N=C(N)c1ccc(-c2[nH]c3cc(C(=N)N)ccc3c2CC(=O)O)cc1`, > 250 °C. Take `COC(=O)CCNCCc1c(-c2ccc(C(=N)N)cc2)[nH]c2cc(C(=N)N)ccc12.Cl.Cl`: the melting point is > 250 °C.

`Cl.Cl.N=C(N)c1ccc(-c2[nH]c3cc(C(=N)N)ccc3c2CC(=O)OCCCCCO)cc1`: the melting point was > 250 °C. As for `CNC(=N)c1ccc(-c2cc3ccc(C(=N)NC)cc3[nH]2)cc1.Cl.Cl`, the melting point came to 282 °C. For the molecule `Cl.Cl.N=C(N)c1ccc(-c2cc3ccc(C(=N)N)cc3[nH]2)c(OCC(O)CO)c1` (centres unmarked), the melting point is > 320 °C. As to `CCCCS(=O)(=O)CCOC(=O)Cc1c(-c2ccc(C(=N)N)cc2)[nH]c2cc(C(=N)N)ccc12.Cl.Cl`, the melting point was > 250 °C. `COC(=O)c1cccc(Cc2c(-c3ccc(C(=N)N)cc3)[nH]c3cc(C(=N)N)ccc23)c1.Cl.Cl`: the melting point was > 250 °C. With `COC(=O)C(CCCCN)NC(=O)Cc1c(-c2ccc(C(=N)N)cc2)[nH]c2cc(C(=N)N)ccc12.Cl.Cl` (centres unmarked) the figure was > 260 °C; with `Cl.Cl.N=C(N)c1ccc(-c2[nH]c3cc(C(=N)N)ccc3c2CC(=O)OCC2CCCCO2)cc1` (centres unmarked), > 250 °C; with `Cl.Cl.N=C(N)c1ccc(-c2[nH]c3cc(C(=N)N)ccc3c2CC(=O)OCC(O)CO)cc1` (centres unmarked), > 250 °C. The value for `CCOC(=O)CNCCc1c(-c2ccc(C(=N)N)cc2)[nH]c2cc(C(=N)N)ccc12.Cl.Cl` was > 250 °C; that for `Cl.Cl.N=C(N)c1ccc(-c2[nH]c3cc(C(=N)N)ccc3c2Cc2cccc(OCC(N)=O)c2)cc1` was > 250 °C.

Turning to `COC(=O)Cc1c(-c2ccc(C(=N)N)cc2O)[nH]c2cc(C(=N)N)ccc12.Cl.Cl`, the melting point was > 250 °C. Consider `Cl.Cl.N=C(N)c1ccc(-c2[nH]c3cc(C(=N)N)ccc3c2CC(=O)OCCOCc2ccccc2)cc1`, for which the melting point was > 250 °C. For `Cl.Cl.N=C(N)c1ccc(-c2[nH]c3cc(C(=N)N)ccc3c2CC(=O)OCc2ccccc2)cc1`, the melting point was > 250 °C.

Consider `COC(=O)C=CCc1c(-c2ccc(C(=N)N)cc2)[nH]c2cc(C(=N)N)ccc12.Cl.Cl`, for which the melting point was > 250 °C. The value for `COC(=O)CNCCc1c(-c2ccc(C(=N)N)cc2)[nH]c2cc(C(=N)N)ccc12.Cl.Cl` was > 250 °C; that for `COC(=O)C(CCCN)NC(=O)Cc1c(-c2ccc(C(=N)N)cc2)[nH]c2cc(C(=N)N)ccc12.Cl.Cl` (centres unmarked) was > 250 °C; that for `CCCCOC(=O)Cc1c(-c2ccc(C(=N)N)cc2)[nH]c2cc(C(=N)N)ccc12.Cl.Cl` was > 270 °C. With `CC(C(=O)O)c1c(-c2ccc(C(=N)N)cc2)[nH]c2cc(C(=N)N)ccc12.Cl.Cl` (centres unmarked) the figure was > 260 °C. The value for `COC(=O)C(CCCNC(=O)OCc1ccccc1)NC(=O)Cc1c(-c2ccc(C(=N)N)cc2)[nH]c2cc(C(=N)N)ccc12.Cl.Cl` (centres unmarked) was 230 to 235 °C; that for `COC(=O)CC(NCCc1c(-c2ccc(C(=N)N)cc2)[nH]c2cc(C(=N)N)ccc12)C(=O)OC.Cl.Cl` (centres unmarked) was > 250 °C; that for `CC(C)OC(=O)C(C)Oc1cc(C(=N)N)ccc1-c1cc2ccc(C(=N)N)cc2[nH]1.Cl.Cl` (centres unmarked) was 240 °C. As to `Cl.Cl.O=CCc1c(-c2ccc(C3=NCCN3)cc2)[nH]c2cc(C3=NCCN3)ccc12`, the melting point was > 300 °C. Take `C=CCOC(=O)Cc1c(-c2ccc(C(=N)N)cc2)[nH]c2cc(C(=N)N)ccc12.Cl.Cl`: the melting point was > 250 °C.

Take `Cl.Cl.N=C(N)c1ccc(-c2[nH]c3cc(C(=N)N)ccc3c2CCNCC(=O)O)cc1`: the melting point is > 250 °C. The value for `COC(=O)C(Cc1ccccc1)NCCc1c(-c2ccc(C(=N)N)cc2)[nH]c2cc(C(=N)N)ccc12.Cl.Cl` (centres unmarked) was > 250 °C. With `Cl.Cl.N=C(N)c1ccc(-c2[nH]c3cc(C(=N)N)ccc3c2CC(=O)NCC(=O)NC(CCC(=O)OCc2ccccc2)C(=O)OCc2ccccc2)cc1` (centres unmarked) the figure was 207 to 212 °C; with `COC(=O)C(NCCc1c(-c2ccc(C(=N)N)cc2)[nH]c2cc(C(=N)N)ccc12)C(C)C.Cl.Cl` (centres unmarked), > 250 °C.
